From patent publication US20240368183A1, “Macrocyclic Compounds Having ENT1 Inhibiting Activity” (iTeos Belgium SA, priority 2021, published 2024)
Where two headings read alike, the source gives them in different places.

Tests used:
human ENT1 = target: T1, human ENT1 (Homo sapiens, UniProt Q99808); assay: ENT1 binding assay (competition with Sahenta-DY647); settings: JAR cells expressing ENT1; competition with Sahenta-DY647 (100 nM); 4° C.
T1 construct: JAR cells expressing ENT1 were bought from ATCC® (HTB-144TM); host or cells: JAR cells (human choriocarcinoma line, own knowledge)
T1 sequence (Q99808 1-456): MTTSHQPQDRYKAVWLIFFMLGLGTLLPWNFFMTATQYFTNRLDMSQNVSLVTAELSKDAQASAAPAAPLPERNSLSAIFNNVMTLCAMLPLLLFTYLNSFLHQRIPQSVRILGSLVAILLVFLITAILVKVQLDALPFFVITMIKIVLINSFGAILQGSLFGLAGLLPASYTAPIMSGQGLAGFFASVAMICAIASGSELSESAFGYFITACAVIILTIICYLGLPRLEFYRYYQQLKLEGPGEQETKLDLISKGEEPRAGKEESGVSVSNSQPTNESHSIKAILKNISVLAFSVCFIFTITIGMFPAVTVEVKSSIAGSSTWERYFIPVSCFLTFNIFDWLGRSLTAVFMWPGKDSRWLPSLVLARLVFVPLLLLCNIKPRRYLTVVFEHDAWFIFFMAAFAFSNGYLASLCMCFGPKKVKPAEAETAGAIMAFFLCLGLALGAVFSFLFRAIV
Method: The present assay aims at showing that the compounds of the present disclosure can bind to human ENT1. The principle of the assay is a competition between the compounds of this present disclosure and Sahenta-DY647, an ENT1 inhibitor that emits fluorescence (Ex=630 nm, Em=670 nm). By measuring the fluorescence at the end of the assay we could assess the binding potency of the compounds of the present disclosure.
JAR cells expressing ENT1 were bought from ATCC® (HTB-144TM). Cells were cultured in RPMI 1640 medium (LONZA®, #BE12-702F/U1) supplemented with 10% FBS (GIBCO®, #10270-106), 10 mM Hepes (LONZA®, #BE17-737E), 1 mM Sodium Pyruvate (LONZA®, #BE13-115E) and 2% Penicillin/Streptomycin (LONZA®, #DE17-603E) at 37° C. and 5% CO2. The assay was conducted on the following buffer: HBSS (LONZA®, #LO-527F) supplemented with 10 mM Hepes (LONZA®, #BE17-737E) and 0.1% BSA (Miltenyi®, #130-091-376) on the day of the assay.
JAR cells were resuspended in the described buffer. Compounds of the present disclosure and Sahenta-DY647 were diluted 200× in the described buffer.
A total of 50 000 cells were pre-incubated for 30 min at 4° C. with the compounds of the present disclosure before adding the corresponded IC90 of Sahenta-DY647 (100 nM) and incubate once more for 30 min at 4° C. The total volume of the reaction was 100 μL (50 μL of cells, 25 μL of the compounds of the present disclosure and 25 μL of Sahenta-DY647) in a 96 well plate, U-bottom (Greiner®, #650-180). The plates were washed 2× by centrifugation (4 min, 400 rcf at 4° C.) in the same buffer. Cells were re-suspended in 70 μL of the buffer and 50 μL was transferred to a Black 384 Optiplate (PerkinElmer®, #6007279). Fluorescence (Ex=630 nm, Em=670 nm) was acquired on a Spectramax i3x (Molecular Devices®).

[1] = tested on: stimulated primary human T cells; assay: T cell proliferation assay (rescue of proliferation in the presence of ATP); format: cell-based
Method: The aim of this study was to determine the potency of equilibrative nucleoside transporter 1 (ENT1) inhibitors to rescue proliferation by stimulated primary human T cells incubated in the presence of 100 uM Adenosine triphosphate (ATP), in baseline conditions (condition A) or in the presence of various proteins known to bind small molecules (condition B)
Condition B: X-VIVO15, 2% Human Serum Albumine (HSA) and 0.1% α-1-Acid Glycoprotein (AAG)
Cryopreserved purified human CD3+ T cells were thawed and washed twice with RPMI1640 medium, UltraGlutamine containing 10% hiFBS.
Cells were suspended in PBS containing 10% hiFBS. Cells were stained with CFSE by adding 2 μM solution in PBS, to get a final 1 μM CFSE solution. Cells were incubated while rotating for 5 minutes. Reaction was stopped by adding PBS with 10% FBS and cells were centrifuged for 5 minutes at 1500 rpm.
Cells were resuspended at 1.6×10^6 cells/mL, either in X-VIVO15 medium or in 4% Human Serum Albumin and 0.2% α-1-Acid Glycoprotein. 50 μL of cell suspension (8×10^4 T cells) was added to wells of sterile round-bottom 96-well plates. Cells were activated by adding 50 μL of anti-CD3 anti-CD28 coated microbeads, suspended either in XVIVO-15 medium or in 4% HSA and 0.2% α-1-Acid Glycoprotein, at a ratio of one microbead per two cells.
Serial dilutions of the ENT1 inhibitors were prepared in X-VIVO15 from 10 mM stock solutions in DMSO, and 50 μL was added to the wells.
ATP powder was diluted in X-VIVO15, and 50 μL of this compound was added to the wells to reach a final assay concentration of 100 μM. Final volume of 200 μL.
The experiments were also performed in 384 well plates—all volumes reduced by a factor of 4 (12.5 μL) with a final volume of 50 μL.
Experiments were performed in duplicate. The cells were placed in a 37° C. humidified tissue culture incubator with 5% CO2 for 72 hours for 96 well plates, 96 hours for 384 well plates After 72 or 96 hours, proliferation was measured determined by CFSE dilution via flow cytometry.

[2] = Condition B: X-VIVO15, 2% Human Serum Albumine (HSA) and 0.1% α-1-Acid Glycoprotein (AAG), 100 μM ATP, read-out: (2) T Cell proliferation (Condition B) IC50
[3] = Homo sapiens, Condition A: X-VIVO15, 100 μM ATP, read-out: T Cell proliferation (Condition A) IC50

`COc1cc2cc(c1OC)OCCCC(n1cc(-c3ccccc3)cn1)CCN1CCCN(CCCOC2=O)CC1` (stereo not drawn) [Compound 29] was tested, and the IC50 (human ENT1) was 1 to 20 nM, the IC50 [1, 2] was 20 to 500 nM and the IC50 [1, 3] was < 1 nM.

For `COc1cc(C(=O)OC2CCCOc3cc(cc(OC)c3OC)C(=O)NCCCN3CCN(CC2)CC3=O)cc(OC)c1OC` (stereo not drawn) [Compound 30], the IC50 (human ENT1) was 1 to 20 nM, the IC50 [1, 2] was 20 to 500 nM and the IC50 [1, 3] was < 1 nM.

With `COc1cc(C(=O)OC2CCCOc3cc(cc(Cl)c3Cl)C(=O)NCCCN3CCCN(CC2)CC3)cc(OC)c1OC` (stereo not drawn) [Compound 33] the IC50 (human ENT1) was 20 to 500 nM, the IC50 [1, 2] was > 500 nM and the IC50 [1, 3] was 1 to 20 nM.

`COc1cc(C(=O)OC2CCCOc3cc(cc(OC)c3OC)-c3cn(nn3)CCCN3CCCN(CC2)CC3)cc(OC)c1OC` (stereo not drawn) [Compound 37] was tested, and the IC50 (human ENT1) was 1 to 20 nM, the IC50 [1, 2] was 20 to 500 nM and the IC50 [1, 3] was < 1 nM.

`COc1cc2cc(c1OC)OCCCC(OC(=O)NCC(=O)N1CCOCC1)CCN1CCCN(CCCNC2=O)CC1` (stereo not drawn) [Compound 40] gave an IC50 (human ENT1) of 20 to 500 nM, an IC50 [1, 2] of 20 to 500 nM and an IC50 [1, 3] of 20 to 500 nM.

`COc1cc(C(=O)OC2CCCOc3cc(cc(OC)c3OC)COCCN(C)C3CCN(CC2)CC3)cc(OC)c1OC` (stereo not drawn) [Compound 41] was tested, and the IC50 (human ENT1) was 1 to 20 nM, the IC50 [1, 2] was 20 to 500 nM and the IC50 [1, 3] was < 1 nM.

In the case of `COc1cc(C(=O)OC2CCCOc3cc(cc(OC)c3OC)COCCC3CCN(CC3)CC2)cc(OC)c1OC` (stereo not drawn) [Compound 42], the IC50 (human ENT1) is reported as 1 to 20 nM, the IC50 [1, 2] is reported as 20 to 500 nM and the IC50 [1, 3] is reported as < 1 nM.

In the case of `COc1cc(C(=O)OC2CCCOc3cc(cc(OC)c3OC)COCCOCCN(C)CC2)cc(OC)c1OC` (stereo not drawn) [Compound 43], the IC50 (human ENT1) is reported as 1 to 20 nM, the IC50 [1, 2] is reported as 20 to 500 nM and the IC50 [1, 3] is reported as < 1 nM.

In the case of `COc1cc(C(=O)OC2CCCOc3cc(cc(OC)c3OC)COCCN3CCCN(CC2)CC3)cc(OC)c1OC` (stereo not drawn) [Compound 44], the IC50 (human ENT1) is reported as 1 to 20 nM, the IC50 [1, 2] is reported as 20 to 500 nM and the IC50 [1, 3] is reported as < 0.1 nM.

For `COc1cc(C(=O)OC2CCCOc3cc(cc(OC)c3OC)CCCCS(=O)(=O)N3CCCN(CC2)CC3)cc(OC)c1OC` (stereo not drawn) [Compound 47], the IC50 (human ENT1) was 1 to 20 nM, the IC50 [1, 2] was 1 to 20 nM and the IC50 [1, 3] was < 1 nM.
